Assay results as given in patent US10188637B2, “Granulate formulation of 5-methyl-1-phenyl-2-(1H)-pyridone and method of making the same” (HOFFMANN-LA ROCHE INC., priority 2016, dated 2019).

Experiments:
[1] = Flow function coefficient (FFC) of powder blends mixed in a turbula mixer; format: physicochemical; conditions: powder blend
Procedure: Flow function coefficient (FFC) is a measure of powder flow. Values less than about 4 are considered poor and sub-optimal for powder processing. Values between 4-10 are considered acceptable flow values for powder processing. Flow behavior was analyzed for pure pirfenidone (without excipients) and a binary powder mixture of pirfenidone and microcrystalline cellulose mixed with either about 1% by weight silica or about 2% by weight silica, as shown in Table 3 below. The components were mixed in a turbula mixer and the different flow properties of the blends were measured.

[2] = tested on: human mesenchymal-like cells (lung fibroblasts, skin fibroblasts, prostate stromal cells, renal mesangial cells); conditions: graded concentrations in cell culture media; cited from earlier work
[3] = after oral administration; cited from earlier work

- Flow Function Coefficient (Avg.) [1]: 2.3
- Flow Function Coefficient (Avg.), flow rating in words [1]: (poor flow)
Structure (SMILES): Cc1ccc(=O)n(-c2ccccc2)c1 [Pirfenidone, 5-methyl-1-phenyl-2-(1H)-pyridone]
- Effective levels relative to levels exerting pharmacologically toxic effects on the cells [2]: ten to twenty times lower
- Observed side effects [3]: relatively mild (drowsiness, gastric nausea or photosensitivity rash)
- Serious adverse reactions [3]: No serious adverse reactions have been reported
